Values of other authors as cited in patent US8846104B2, “Pharmaceutical compositions for the deterrence and/or prevention of abuse” (priority 2006, dated 2014).

Tested on: mu over delta sites

In the case of `O=C1CC[C@@]2(O)[C@H]3Cc4ccc(O)c5c4[C@@]2(CCN3CC2CC2)[C@H]1O5` [naltrexone], the “blocking action, site preference” value is listed as “strong preferential blocking action against mu over delta sites”.
